Data set [1] deals with T1, Polymerase acidic protein (Influenza A virus (strain A/X-31 H3N2), UniProt Q9IQ47). The data set can be described thus: Inhibition of recombinant Influenza A/X-31 virus PA (N-terminal amino acid residue 1-217) transfected in Escherichia coli assessed as endonucleolytic digestion using single-stranded circular DNA plasmid M13mp18 after 2 hrs by ethidium bromide staining based agarose gel electrophoresis. More on the design: species or system Influenza A virus (A/X-31(H3N2)).

The nature of data set [2]: Cytotoxicity against HEK293T cells assessed as effect on cell morphology after 24 hrs by microscopic analysis. In kind it is cell-based, HEK-293T. The note with it: human.
The subject of data set [3] is Hepatitis C virus. The data set can be described thus: Antiviral activity against HCV Con1 infected in human Huh5-2 cells haboring firefly luciferase expressing subgenomic replicon of HCV genotype 1b after 72 hrs by luciferase reporter gene assay. The data set is classed as functional, organism-based, Hepacivirus hominis. As to conditions: isolate Con1, Huh-5-2, 72 h.

The nature of data set [4]: Cytotoxicity against human Huh5-2 cells assessed as cell viability after 72 hrs by Alamar blue dye based colorimetric analysis. As to conditions: read-out: LC50. Set-up: species or system Huh-5-2. (In general: The colour change of resazurin is a common sign of viable cells or microbes.)
Data set [5] has as its target T1, Polymerase acidic protein. The data set can be described thus: Inhibition of recombinant Influenza A/X-31 virus PA infected in HEK293T cells after 2 hrs by vRNP reconstitution assay. The data set is classed as cell-based, Influenza A virus (A/X-31(H3N2)), HEK-293T.
The nature of data set [6]: Dissociation constant, pKa of compound. In kind it is physicochemical.
Data set [7] in a line: Lipophilicity, log D of compound. The data set is classed as physicochemical. The note with it: octanol/water.
Data set [8] relates to Hepatitis C virus. The data set can be described thus: Antiviral activity against HCV Con1 infected in human Huh5-2 cells haboring firefly luciferase expressing subgenomic replicon of HCV genotype 1b at 100 uM after 7 days by luciferase reporter gene assay. The note with it: Hepacivirus hominis, isolate Con1, Huh-5-2. The data set is classed as functional, organism-based. On the technique in general: In antiviral work, replicon cells carry a viral genome segment that copies itself.

Data set [9] in a line: Selectivity index, ratio of LC50 for human Huh5-2 cells to EC50 for HCV Con1 infected in human Huh5-2 cells haboring firefly luciferase expressing subgenomic replicon of HCV genotype 1b. More on the design: species or system Huh-5-2.
The target of data set [10] is T2, Nonstructural protein 5A (Hepatitis C virus) (UniProt Q5L478).
T2 sequence (whole entry): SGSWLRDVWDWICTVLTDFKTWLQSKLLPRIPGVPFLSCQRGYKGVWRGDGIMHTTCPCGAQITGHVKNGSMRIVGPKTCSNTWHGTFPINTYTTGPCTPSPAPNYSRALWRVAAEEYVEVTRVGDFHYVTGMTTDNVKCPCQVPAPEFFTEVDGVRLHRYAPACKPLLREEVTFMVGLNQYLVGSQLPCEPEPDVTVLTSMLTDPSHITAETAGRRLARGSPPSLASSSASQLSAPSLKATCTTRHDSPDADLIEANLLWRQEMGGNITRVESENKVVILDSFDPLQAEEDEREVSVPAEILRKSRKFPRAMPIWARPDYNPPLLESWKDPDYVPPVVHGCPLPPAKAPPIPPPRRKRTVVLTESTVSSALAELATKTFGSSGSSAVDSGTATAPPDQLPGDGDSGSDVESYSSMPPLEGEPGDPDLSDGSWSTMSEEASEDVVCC
The data set can be described thus: Inhibition of HCV NS5A in Huh5-2 replicon cells at 100 uM propidium iodide staining based confocal microscopic analysis. The data set is classed as cell-based. The note with it: Hepacivirus hominis.

In data set [11] the target is Polymerase acidic protein (Influenza A virus (A/Puerto Rico/8/1934(H1N1)), UniProt P03433). Put plainly: Inhibition of Influenza A/PR/8/34 virus PA endonuclease by cap dependent RNA polymerase assay.

The results in this text go back to ChEMBL document CHEMBL3804762, “Novel indoleflutimide heterocycles with activity against influenza PA endonuclease and hepatitis C virus” (Medchemcomm, 2016).

Calls of active or inactive are those of the source. The rule behind the calls is not given here.

For orientation: IC50 means the concentration that gives 50% inhibition. A word on the EC50: it is the midpoint of the concentration-response curve. One may read the pKa as the pH at which an ionisable group is half protonated. Low readings indicate a group that gives up its proton readily, high ones a group that holds its proton tightly. A word on the logD: it is the decadic logarithm of the distribution of all forms, ionised or not, between an organic phase and buffer at a given pH. With `O=C1Cn2c(cc3cc(O)ccc32)C(=O)N1O`, in [1], the IC50 was 29.2 µM. For the same molecule, the MCC at 24 h in data set [2] was not below 500 µM. Moreover, the results for the EC50 in [3] and in data set [5] were more than 200 µM and 75 µM, respectively. In [4], the CC50 at 72 h was more than 200 µM. The molecule also displayed a pKa in data set [6] of 7.27. In data set [7], this molecule gave a logD of 0.26.
On to `COc1ccc2c(c1)cc1n2CC(=O)N(O)C1=O`, for which the IC50 in data set [1] amounted to 23 µM. Also, in data set [2], the MCC at 24 h is not below 500 µM. The EC50 is more than 200 µM in data set [3] and 48 µM in data set [5]. Moreover, the CC50 at 72 h in data set [4] is more than 200 µM. The molecule also yielded a pKa in [6] of 7.27. This molecule also came in with a logD in data set [7] of 0.41.
In the case of `O=C1Cn2c(cc3cc(Cl)ccc32)C(=O)N1O`, the IC50 in data set [1] amounted to 26.9 µM. For the same molecule, the outcome in data set [8] was inactive. The MCC at 24 h in data set [2] is not below 500 µM. In [9], the “Selectivity Index” value is recorded as more than 19.1. In addition, the EC50 turned out to be 10.5 µM in data set [3] and 114 µM in data set [5]. In data set [4], the CC50 at 72 h is more than 200 µM. In data set [10], the inhibition entry is “Active”. For the same molecule, in data set [6], the pKa worked out at 7.27. Further, the logD in data set [7] came to 1.17.
For the molecule `O=C1Cn2c(cc3ccccc32)C(=O)N1O`, in [1], the IC50 was 12.7 µM. For the same molecule, the MCC at 24 h in [2] was not below 500 µM. The “Selectivity Index” value in data set [9] was more than 1.6. For the same molecule, the EC50 in [3] is 126 µM; in [5], 297 µM. Besides, in [4], the CC50 at 72 h is more than 200 µM. Further, in data set [6], the pKa was 7.27. Also, the logD in [7] was 0.57.
Consider `O=C(O)C(=O)CC(=O)c1ccccc1`, for which the IC50 in data set [1] came to 5.4 µM. In data set [3], this molecule had an EC50 of more than 200 µM. Further, the CC50 at 72 h in data set [4] is more than 200 µM. The molecule further showed a pKa in [6] of 2.85. Further, in [7], the logD is -1.73.
Consider `O=C1Cn2c(cc3cc(F)ccc32)C(=O)N1O`, for which the IC50 in data set [1] is 17.3 µM. In addition, the MCC at 24 h in [2] is not below 500 µM. Further, in data set [9], the “Selectivity Index” value was more than 2.4. Besides, the EC50 in data set [3] was 83.8 µM; in [5] it was more than 500 µM. For the same molecule, the CC50 at 72 h in [4] was more than 200 µM. This molecule showed a pKa in data set [6] of 7.27. Also, the logD in data set [7] stood at 0.71.
In the case of `O=C1Cn2c(cc3ccccc32)C(=O)N1`, the IC50 in [1] is more than 500 µM. In addition, in data set [3], the EC50 is more than 200 µM. Moreover, the CC50 at 72 h in data set [4] is more than 200 µM. Moreover, the pKa in data set [6] was 9.3. This molecule yielded a logD in data set [7] of 0.75.
Consider `O=C1Cc2ccccc2CC(=O)N1O`, for which, in data set [11], the IC50 is more than 500 µM.
